Tests used:
[1] = tested on: short-term antigen-specific T cell lines generated from PBMCs; assay: Interferon-γ ELISpot assay on short-term antigen-specific T cell lines; type: cell-based, human; details: for rates of immunoactivation in PBMC samples, CD8 T cell responses and/or numbers of HPV16 positive cell lines presenting the peptide as HLA-complexes: comparison among the peptides in Table 1
[2] = tested on: peptide-specific T cell cultures; assay: T cell phenotyping and intracellular cytokine staining (IFN-gamma, TNF-alpha); type: cell-based, human; set-up: key: +: cytokine: Immunogenicity of the peptide shown by intracellular cytokine staining (IFN-gamma, TNF-alpha); +*: *highlights data from published resources.; *highlights data from published resources
Method: To characterize and quantify the responsive cells upon peptide stimulation, the peptide-specific T cell cultures with positive ELISpot results were further analyzed with T cell phenotyping and intracellular cytokine staining (ICS) assessed by flow cytometry.
The cells of the respective continued short-term T cell culture as well as the DMSO-stimulated and an unresponsive T cell line were harvested into 2 mL reaction tubes and centrifuged at 400×g for 10 min. The supernatant was discarded and the pellet of the unresponsive T cell line was resuspended in 100 μL ELISpot medium and used as unstimulated and unstained control. The pellets of the responsive and the DMSO-stimulated T cell lines were resuspended in 200 μL ELISpot medium and split equally into two wells of a V-bottom 96-well plate. One well of the responsive T cell lines was re-stimulated with 10 μg/mL of its specific peptide while the other well was mock stimulated with 0.1% (v/v) DMSO. As positive control, one well of the DMSO-stimulated T cell line was activated by treatment with 20 ng/ml Phorbol 12-myristate 13-acetate and 1 μM lonomycin. Then, 1:10 diluted GolgiStop (containing monensin) and 1:15 diluted GolgiPlug (containing brefeldin A) were added to all wells to inhibit intracellular transport processes. Monensin inhibits the trans-Golgi transport, while brefeldin A inhibits transport between the ER and the Golgi (Chardin and McCormick, 1999; Mollenhauer et al., 1990). The stimulated cells were incubated for 5 h at standard culture conditions.
After incubation, the cells were resuspended, centrifuged at 400×g for 5 min and the supernatant was discarded. Then, the cells were resuspended in 50 μL cold staining buffer (unstained) or 50 μL cold staining buffer containing the phenotyping antibodies against CD3, CD4, CD8 and the LIVE/DEAD™ Fixable Near-IR Dead Cell Stain (unstimulated and stimulated) and incubated at 4° C. for 30 min. After the surface staining, the cells were washed twice with 200 μL staining buffer and centrifugation at 1400 rpm, followed by fixation with 1% paraformaldehyde (PFA) solution for 15 min at 4° C. All following centrifugation steps were carried out at 1400 rpm for 5 min. After fixation, the cells were again washed twice with 200 μL cold staining buffer and were then resuspended in 100 μL 1× perm/wash buffer diluted in PBS (provided is 10×) for 15 min at 4° C. for cell membrane permeabilization. Subsequently, the plate was centrifuged and the supernatant was discarded. The cells were resuspended in 50 μL perm/wash buffer diluted in PBS (unstained) or 50 μL perm/wash buffer containing the intracellular cytokine antibodies against IFNγ, TNFα and granzyme B (unstimulated and stimulated) for 30 min at 4° C. After intracellular cytokine staining, the cells were washed twice with 200 μL 1× perm/wash buffer. Then 100 μL fix/perm solution (provided in the BD Cytofix/Cytoperm kit) were added per well. After 20 min of incubation at 4° C., the cells of each well were washed twice with 200 μL 1× perm/wash buffer before being resuspended in 100 μL staining buffer and stored at 4° C. overnight.
OneComp eBeads™ (eBeads) and ArC™ Amine Reactive Compensation beads (ArC beads) were stained as compensation controls. For each antibody, 50 μL of the eBeads suspension were stained with the same dilution as used for staining the cells. The ArC beads were stained with 1 μL LIVE/DEAD™ Fixable Near-IR Dead Cell Stain stock solution in 50 μL staining buffer. The beads were incubated at 4° C. for 30 min and were then washed two times with 1 mL staining buffer and centrifugation at 400×g. Finally, the stained beads were resuspended in 400 μL staining buffer, one drop of ArC™ negative beads was added to the labelled ArC beads, and all beads were stored at 4° C. overnight.
On the next day, the samples and the single stained compensation controls were acquired at a BD FACS Canto™ II analyzer using the BD FACS Diva Software Version 6. […]

[3] = tested on: HPV16-positive cells; assay: Cytotoxicity assay (VITAL FR / live-cell imaging-based) with peptide-specific CD8+ T cells; set-up: species or system human; key: +: cytotox: Ability of peptide-specific T cells to kill HPV16-positive cells.; +*: *highlights data from published resources.; *highlights data from published resources; details: HLA restriction A02
Method: The flow cytometry based VITAL FR cytotoxicity assay was used as published by Stanke et al. (Stanke et al., 2010) to assess whether peptide-specific T cells are able to specifically kill HPV-transformed target cells. Briefly, two HLA-A2+ cell lines, a HPV16-negative (HPV16−) control cell line (C33A) and a HPV16-positive (HPV16+) target cell line (CaSki) were fluorescently labeled with either FarRed or CFSE and were co-incubated with peptide-specific CD8+ T cells as effector cells. After 48 h co-incubation, the fluorescently labeled cells were analyzed by flow cytometry to determine the surviving cells and calculate the specific cytolytic function of the effector cells by the ratio of target and control cells.
CaSki and C33A cells were fluorescently labeled with CFSE and FarRed, respectively. Cells of both cell lines were harvested and resuspended in plain RPMI medium at a concentration of 1×10^6 cells/mL. For cell labeling, 5 μM CSFE were added to CaSki cells and 0.25 μM FarRed were added to C33A cells. The cells were incubated at 37° C. and the reaction was stopped after 10 min by addition of 50 mL RPMI with 10% FBS. The cells were centrifuged at 300×g for 5 min, the supernatant was discarded and the cells were resuspended in their cell culture medium. The labeled cells were seeded in T25 cell culture flasks with 1-2×10^6 cells/flask.
On the next day, the labeled CaSki and C33A as well as the epitope-specific semi-long-term T cell lines (described in 1.6) were harvested. CD8+ T cells were isolated from the epitope-specific semi-long-term T cell lines using the MACS CD8+ T cell isolation kit (Miltenyi Biotec) according to the manufacturer's protocol for LS columns. The CD8+ T cells were resuspended in T cell medium and added to wells of a F-bottom 96-well plate in serial dilutions to achieve triplicates of 6×10^4, 3×10^4, 1.5×10^4, 0.75×10^4 and 0.375×10^4 cells per well. The CaSki and C33A cells were mixed 1:1 in T cell medium and 3×10^3 cells were added to each well containing T cells. Thereby effector:target (E:T) ratios of […] were achieved. Additionally, triplicates of mixed target cells without T cells were seeded, which is referred to as E:T 0. After 48 h incubation at 37° C., 5% C02, the cells were harvested and analyzed at a BD FACS Canto™ II analyzer using the BD FACS Diva Software Version 6. The obtained data were analyzed with the FlowJo software Version 10 by applying the same gating strategy to all samples. Subsequently, the equations (1) and (2) given below were applied in Excel (Microsoft Office 2016) to calculate specific killing.
Semi long-term T cell lines were set up to obtain high numbers of T cells, which are required for the analysis of epitope specific cytotoxic T cell responses in VITAL FR cytotoxicity assays. Autologous DCs were generated from PBMCs as described in 1.7 and loaded with the desired HPV16 peptide. PBMCs of the same donor were thawed and resuspended in T cell medium supplemented with rhIL-7 (10 ng/mL) and rhIL-15 (20 ng/mL). 1×10^7 PBMCs/well were seeded to a 24-well plate in a total volume of 1 mL/well. Peptide-loaded DCs were added in a ratio of 50:1 (PBMCs:DCs) in 1 mL rhIL-7 (10 ng/mL) and rhIL-15 (20 ng/mL) supplemented T cell medium to achieve a final volume of 2 mL. The cell cultures were fed with rhIL-2 (final concentration: 40 U/mL) every other day. If the medium turned yellow the feeding was combined with a half medium change with 1 mL fresh IL-2 supplemented T cell medium. After eight days, the peptide stimulation with peptide-loaded DCs was repeated and cultivation was continued. On day 15, the T cell lines were harvested and used for CD8+ T cell isolation and cytotoxicity assays.
In addition to the VITAL FR assay described herein above, a newly established live-cell imaging-based cytotoxicity assay was applied. […]

Row | Molecule | ELISpot: Immungenicity of the peptide shown by IFN-gamma ELISPOT analysis ([1]; HLA restriction B07) | cytokine: Immunogenicity of the peptide shown by intracellular cytokine staining (IFN-gamma, TNF-alpha) ([2]; HLA restriction B07) | ELISpot: Immungenicity of the peptide shown by IFN-gamma ELISPOT analysis ([1]; HLA restriction B15) | cytokine: Immunogenicity of the peptide shown by intracellular cytokine staining (IFN-gamma, TNF-alpha) ([2]; HLA restriction B15) | other results
1 | 89 (HYNIVTFCC; Human papillomavirus 16) [compound 89] | – | – | – | – | ELISpot: Immungenicity of the peptide shown by IFN-gamma ELISPOT analysis ([1]; HLA restriction A24): +; cytokine: Immunogenicity of the peptide shown by intracellular cytokine staining (IFN-gamma, TNF-alpha) ([2]; HLA restriction A24): +
2 | 92 (HYCYSLYGTTL; Human papillomavirus 16) [compound 92] | – | – | – | – | ELISpot: Immungenicity of the peptide shown by IFN-gamma ELISPOT analysis ([1]; HLA restriction A24): +; cytokine: Immunogenicity of the peptide shown by intracellular cytokine staining (IFN-gamma, TNF-alpha) ([2]; HLA restriction A24): +
3 | 97 (RPRKLPQL; Human papillomavirus 16) [compound 97] | + | + | – | – | rates of immunoactivation in PBMC samples, CD8 T cell responses and/or numbers of HPV16 positive cell lines presenting the peptide as HLA-complexes [1]: highest rates of immunoactivation in PBMC samples, to induce the strongest CD8 T cell responses, and/or shown to be presented as HLA-complexes by the highest numbers of HPV16 positive cell lines
4 | 99 (RPRKLPQLCTE; Human papillomavirus 16) [compound 99] | + | + | – | – | –
5 | 101 (NIRGRWTGRCM; Human papillomavirus 16) [compound 101] | + | + | + | + | –
6 | 102 (EPDRAHYNIV; Human papillomavirus 16) [compound 102] | + | + | – | – | –
7 | 107 (KQQLLRREVY; Human papillomavirus 16) [compound 107] | – | – | + | + | rates of immunoactivation in PBMC samples, CD8 T cell responses and/or numbers of HPV16 positive cell lines presenting the peptide as HLA-complexes [1]: highest rates of immunoactivation in PBMC samples, to induce the strongest CD8 T cell responses, and/or shown to be presented as HLA-complexes by the highest numbers of HPV16 positive cell lines
8 | 108 (AFRDLCIVY; Human papillomavirus 16) [compound 108] | – | – | + | + | rates of immunoactivation in PBMC samples, CD8 T cell responses and/or numbers of HPV16 positive cell lines presenting the peptide as HLA-complexes [1]: highest rates of immunoactivation in PBMC samples, to induce the strongest CD8 T cell responses, and/or shown to be presented as HLA-complexes by the highest numbers of HPV16 positive cell lines
9 | 109 (LQPETTDLY; Human papillomavirus 16) [compound 109] | – | – | – | + | rates of immunoactivation in PBMC samples, CD8 T cell responses and/or numbers of HPV16 positive cell lines presenting the peptide as HLA-complexes [1]: highest rates of immunoactivation in PBMC samples, to induce the strongest CD8 T cell responses, and/or shown to be presented as HLA-complexes by the highest numbers of HPV16 positive cell lines
10 | 110 (GQAEPDRAHY; Human papillomavirus 16) [compound 110] | – | – | + | + | –
11 | 115 (FAFRDLCIVY; Human papillomavirus 16) [compound 115] | – | – | + | + | –
12 | 116 (LCIVYRDGNPY; Human papillomavirus 16) [compound 116] | – | – | + | + | –
13 | 117 (YRHYCYSVY; Human papillomavirus 16) [compound 117] | – | – | + | + | –
14 | 137 (RHYCYSLY; Human papillomavirus 16) [compound 137] | – | – | – | – | ELISpot: Immungenicity of the peptide shown by IFN-gamma ELISPOT analysis ([1]; HLA restriction A03): +; cytokine: Immunogenicity of the peptide shown by intracellular cytokine staining (IFN-gamma, TNF-alpha) ([2]; HLA restriction A03): +
15 | 141 (RPRKLPDLCT; Human papillomavirus 16) [compound 141] | + | + | – | – | –
16 | CSCC[C@H](NC(=O)[C@@H](N)Cc1ccc(O)cc1)C(=O)N[C@@H](CC(C)C)C(=O)N[C@@H](CC(=O)O)C(=O)N[C@@H](CC(C)C)C(=O)N[C@@H](CCC(N)=O)C(=O)N1CCC[C@H]1C(=O)N[C@@H](CCC(=O)O)C(=O)N[C@H](C(=O)N[C@H](C(=O)N[C@@H](CC(=O)O)C(=O)O)[C@@H](C)O)[C@@H](C)O [compound 15] | – | – | – | – | cytotox: Ability of peptide-specific T cells to kill HPV16-positive cells [3]: +
